Data on two molecules can be found in patent US7662851B2, “Use of specific cyklolignans” (Axelar AB, priority 2001, dated 2010).

As usually defined, the EC50 is the midpoint of the concentration-response curve. The low end stands for higher potency in that assay, the high end for lower potency in that assay. As a reminder, the IC50 is the point on the concentration scale where inhibition reaches its midpoint.

The subject of series [1] is DWB malignant melanoma cell line. Description: Cell viability (XTT), DWB. The format is cell-based. Conditions: 48 h. On the procedure:
(§1) Cell proliferation kit II (Roche Inc.) is based on colorimetric change of the yellow tetrazolium salt XTT in orange formazan dye by the respiratory chain of viable cells (Roehm, N W, et al., J Immunol Methods 142:257-265, 1991). Cells seeded at a concentration of 5000/well in 100 μl medium in a 96-well plate were treated with different drugs in the given concentration. After 24 or 48 h the cells were incubated, according to the manufacturer's protocol, with XTT labelling mixture. After 4 h the formazan dye is quantified using a scanning multiwell spectrophotometer with a 495-nm filter. The absorbance is directly correlated with the number of viable cells. The standard absorbance curve was drawn by means of untreated cells seeded at a concentration of from 1000 to 10 000 cells/well with an increasing rate of 1000 cells/well. All standards and experiments were performed in triplicates.
(§2) 12 different types of cell lines were seeded in 96-well plates (medium volume in a well was 100 μl), at a concentration of 10,000 cells/cm^2 in Minimal Essential Medium supplemented with fetal calf serum. When the cells had reached a concentration of 65,000 cells/cm^2, they were treated with different doses of podophyllotoxin and picropodophyllin for 48 h. Cell viability was then assayed (see above). […]
For orientation: Formazan colour is commonly taken as a measure of viable cells.

For series [2], the system named is SK-MEL-2 melanoma cell line. Description: Cell viability (XTT, Cell proliferation kit II), SK-MEL-2. The format is cell-based. Conditions: Homo sapiens, SK-MEL-2, 48 h. How it is done:
as §1, §2

The conditions of series [3]: nude, mouse, in vivo, ip, 28 mg/kg.
The subject of series [4] is K562/Vcr30 chronic myeloid leukemia cells. Description: Leukemia cell viability, K562/Vcr30. The class given is cell-based, human. Conditions: Homo sapiens; K562/Vcr30, 72 h; read-out: IC50 for cell viability. How it is done: The human chronic myeloid leukemia K562/S and K562/Vcr30 lines and the acute myeloid leukemia cell lines HL60/0 and HL60/Nov were obtained from ATCC. The K562/S and […] are wild type (non-resistant) cells, whereas K562/Vcr30 and HL60/Nov are cytostatic-resistant sublines. All leukemia cell lines were cultured in RPMI 1640 medium supplemented with 10% fetal bovine serum and with 2 mM L-glutamine, benzylpenicillin (100 U/ml) and streptomycin (100 μg/ml). The cells were grown in tissue culture flasks maintained at 95% air/5% CO2 atmosphere at 37° C. in a humidified incubator. For the experiments cells were cultured in 60-mm plastic dishes or 96-well plastic plates.
as §1
Cells of said cell lines were seeded in 96-well plates (25 000 cells/well, medium volume per well was 100 μl), in […] medium supplemented with fetal calf serum. After 24 h picropodophyllin and the derivatives alpha-apopicropodophyllin and beta-apopicropodo-phyllin were added at different concentrations and the cells were incubated for 72 h. Cell viability was then assayed (see above). […] The results are based on 3 different experiments.
The leukemia cell lines K562/S, […], HL60/0 and HL60/Nov were cultured in 96-well plates as described in Experiment 7. After 24 h, the cells were treated for 72 h with different concentrations of the anti-cancer agent vincristine, with and without co-incubation with 0.05 μM picropodophyllin. […] Cell viability was then assayed. IC50 values for each inhibitor and cell line are shown below (Table 8). The results are based on 3 different experiments.

The target of the next series is EGFR tyrosine kinase (Homo sapiens, UniProt P00533). Description: In vitro tyrosine kinase assay: substrate phosphorylation by EGFR, cell-free. The class given is biochemical. Conditions: FIG. 3.
EGFR tyrosine kinase, sequence (P00533 25-1210): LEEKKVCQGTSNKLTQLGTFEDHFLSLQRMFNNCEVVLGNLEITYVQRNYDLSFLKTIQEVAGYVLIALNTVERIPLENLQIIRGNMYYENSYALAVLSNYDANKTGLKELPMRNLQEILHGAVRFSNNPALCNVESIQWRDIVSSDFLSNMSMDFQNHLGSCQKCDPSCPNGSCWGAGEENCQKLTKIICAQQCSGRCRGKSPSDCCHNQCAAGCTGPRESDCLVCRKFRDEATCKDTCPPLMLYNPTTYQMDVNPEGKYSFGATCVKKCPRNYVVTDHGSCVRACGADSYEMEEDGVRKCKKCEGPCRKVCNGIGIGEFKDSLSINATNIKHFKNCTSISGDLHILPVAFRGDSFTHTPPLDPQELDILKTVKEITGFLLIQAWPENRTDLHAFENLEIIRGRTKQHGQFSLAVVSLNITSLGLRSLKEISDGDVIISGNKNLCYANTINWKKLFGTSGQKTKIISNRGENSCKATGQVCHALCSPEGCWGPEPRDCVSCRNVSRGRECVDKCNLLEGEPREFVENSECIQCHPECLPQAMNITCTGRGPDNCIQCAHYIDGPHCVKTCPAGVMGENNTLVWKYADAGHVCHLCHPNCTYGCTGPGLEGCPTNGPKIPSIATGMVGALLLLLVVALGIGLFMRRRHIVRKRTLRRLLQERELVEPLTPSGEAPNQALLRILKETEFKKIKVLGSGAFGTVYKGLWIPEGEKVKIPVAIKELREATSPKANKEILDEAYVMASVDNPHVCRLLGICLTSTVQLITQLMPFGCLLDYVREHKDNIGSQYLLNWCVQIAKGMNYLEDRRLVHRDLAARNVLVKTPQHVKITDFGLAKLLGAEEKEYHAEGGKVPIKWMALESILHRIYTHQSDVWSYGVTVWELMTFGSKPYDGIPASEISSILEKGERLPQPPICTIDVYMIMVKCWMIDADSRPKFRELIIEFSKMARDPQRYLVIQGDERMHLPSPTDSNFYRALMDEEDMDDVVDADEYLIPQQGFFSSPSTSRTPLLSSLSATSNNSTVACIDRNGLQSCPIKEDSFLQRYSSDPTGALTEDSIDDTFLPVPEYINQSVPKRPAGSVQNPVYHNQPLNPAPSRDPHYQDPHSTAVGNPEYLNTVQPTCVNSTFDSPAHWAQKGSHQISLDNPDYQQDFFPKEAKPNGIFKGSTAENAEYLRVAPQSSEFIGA
The test system of series [5] is BE (melanoma cells) xenografts. Description: Tumor growth of BE xenografts in nude mice. The format is in vivo. Conditions: 28 mg/kg i.p. daily 4-6 days, then 4-6 days without treatment, FIG. 6. On the procedure: (§3) Control mice were treated with the solvent. 3-6 animals were treated in each group.
(§4) Because of the toxicity of podophyllotoxin and deoxypodophyllotoxin, we only used picropodophyllin to analyze effects on tumor xenografts. For this purpose ES-1 (Ewing's sarcoma cells) and BE (melanoma cells) xenografts were established in nude mice. When the ES-1 and BE tumors started growing subcutaneously and were measurable, mice were treated daily with intraperitoneal injections of picropodophyllin (28 mg/kg, which was required for giving an average concentration above 0.05 μM of picropodophyllin in the blood plasma) or 80% DMSO in saline as a carrier for 4-6 days, followed by 4-6 days without treatment. The mice were then killed and the tumors analyzed by an experienced pathologist.

Series [6] concerns ES-1 (Ewing's sarcoma cells) xenografts. Description: Tumor growth of ES-1 xenografts in nude mice. The format is in vivo. The note with it: 28 mg/kg i.p. daily 4-6 days, then 4-6 days without treatment, FIG. 6. How it is done:
as §3, §4

Series [7] relates to microtubule polymerisation. Conditions: cited from earlier work.
Another series concerns the target T1, IR tyrosine kinase (Homo sapiens, UniProt P06213).
T1 construct: Immunoprecipitated IR from HepG2; endogenous in cells; host or cells: HepG2 hepatoma cells (immunoprecipitate)
Description: In vitro tyrosine kinase assay: substrate phosphorylation by IR, cell-free. The class given is biochemical. Conditions: FIG. 3. How it is done:
IGF-1R-catalyzed substrate phosphorylation of polyTyrGlu (pTG) was performed essentially as previously described [Parrizas M., et al., ibid., and Blum G., et al., ibid.]. Immunoprecipitated IR from HepG2, IGF-1R from P6 cell extract and immunodepleted supernatant to assay non-IGF-1R tyrosine kinases. The phosphorylated polymer substrate was probed with a purified phosphotyrosine specific monoclonal antibody conjugated to horseradish peroxidase (HARP). Color was developed with HRP chromogenic substrate o-phenylene-diamine dihydrochloride (OPD). The color was quantitated by spectrophotometry (ELISA reader) and reflects the relative amount of tyrosine kinase. The precipitate was immunoblotted with anti-bodies to IGF-1R and IR to verify the presence of the receptor. Serial dilutions were used to assay the optimal conditions with respect to the amount of IGF-1R and IR. The signal was linear for 30 minutes and was a function of IGF-1R concentration up to 75 ng/well. […] After spectrophotometry the IC50 values of inhibitors were determined using the Regression function of Statistica program.
Therefore we isolated the receptor and determined the effects of picropodophyllin on IGF-1R catalyzed substrate tyrosine phosphorylation and IGF-1R autophosphorylation in-vitro.

T1 sequence (P06213 28-1382): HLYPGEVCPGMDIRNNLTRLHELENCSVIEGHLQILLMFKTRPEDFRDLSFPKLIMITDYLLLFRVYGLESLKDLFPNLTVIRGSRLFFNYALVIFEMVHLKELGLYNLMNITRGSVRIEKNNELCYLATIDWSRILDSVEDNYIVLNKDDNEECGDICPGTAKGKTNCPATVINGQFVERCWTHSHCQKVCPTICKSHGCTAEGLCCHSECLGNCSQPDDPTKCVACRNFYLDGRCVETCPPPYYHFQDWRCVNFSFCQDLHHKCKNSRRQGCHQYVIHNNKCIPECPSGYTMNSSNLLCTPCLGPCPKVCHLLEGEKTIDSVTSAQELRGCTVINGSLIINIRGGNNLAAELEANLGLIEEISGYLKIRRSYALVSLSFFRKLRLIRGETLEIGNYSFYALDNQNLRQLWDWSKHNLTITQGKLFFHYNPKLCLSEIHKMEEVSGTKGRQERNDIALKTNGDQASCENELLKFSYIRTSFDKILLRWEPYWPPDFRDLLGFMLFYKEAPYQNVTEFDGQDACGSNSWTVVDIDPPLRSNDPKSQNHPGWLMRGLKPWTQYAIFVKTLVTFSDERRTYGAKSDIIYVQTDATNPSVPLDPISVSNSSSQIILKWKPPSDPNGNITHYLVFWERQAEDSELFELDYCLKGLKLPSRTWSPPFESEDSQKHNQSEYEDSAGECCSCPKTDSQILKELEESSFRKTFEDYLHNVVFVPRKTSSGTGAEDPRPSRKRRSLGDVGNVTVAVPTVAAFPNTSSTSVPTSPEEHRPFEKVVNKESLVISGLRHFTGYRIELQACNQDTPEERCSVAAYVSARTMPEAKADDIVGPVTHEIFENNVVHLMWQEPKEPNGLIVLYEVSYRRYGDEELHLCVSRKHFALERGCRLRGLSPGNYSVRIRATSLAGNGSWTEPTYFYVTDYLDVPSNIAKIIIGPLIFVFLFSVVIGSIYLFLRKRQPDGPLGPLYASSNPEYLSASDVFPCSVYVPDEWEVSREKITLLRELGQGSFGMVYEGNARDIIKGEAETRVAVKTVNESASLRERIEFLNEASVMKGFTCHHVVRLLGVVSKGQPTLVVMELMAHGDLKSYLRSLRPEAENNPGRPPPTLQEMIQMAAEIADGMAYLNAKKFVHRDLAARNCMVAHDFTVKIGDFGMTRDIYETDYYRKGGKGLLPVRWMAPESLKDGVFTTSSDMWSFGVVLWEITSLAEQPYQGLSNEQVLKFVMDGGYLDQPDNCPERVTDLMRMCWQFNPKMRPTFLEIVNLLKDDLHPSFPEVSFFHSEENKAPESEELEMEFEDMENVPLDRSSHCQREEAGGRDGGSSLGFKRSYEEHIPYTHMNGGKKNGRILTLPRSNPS

For the molecule `COc1cc([C@@H]2c3cc4c(cc3[C@H](O)[C@H]3COC(=O)[C@H]23)OCO4)cc(OC)c1OC` [Podophyllotoxin, podophyllotoxin], the 50% effective concentration (EC50) in series [1] worked out at 40 nM; in [2], 50 nM.
In the case of `COc1cc([C@@H]2c3cc4c(cc3[C@H](O)[C@H]3COC(=O)[C@@H]23)OCO4)cc(OC)c1OC` [Picropodophyllin, picropodophyllin], the “Average concentration in the blood plasma” value in [3] is “above 0.05 μM”. In addition, the IC50 in [4] is above 500 nM. In addition, the “Interference with substrate phosphorylation of EGFR tyrosine kinase” value on EGFR tyrosine kinase was “failed to interfere”. The “Effect on tumor growth” value in [5] and in series [6] was “significantly inhibited growth” in each case. Also, the “Fold lower inhibitory effect on microtubule polymerisation than podophyllotoxin” value in [7] is 50 fold. For the same molecule, the “Interference with substrate phosphorylation of IR tyrosine kinase” value at IR tyrosine kinase is reported as “failed to interfere”.
